# Results as given in paper PMC2630805, “Anticancer Alkaloid Lamellarins Inhibit Protein Kinases” (Marine Drugs, 2008).
# Legend:
# CDK1/cyclin B = CDK1/cyclin B kinase assay (histone H1, P81 phosphocellulose); format: biochemical, starfish (Marthasterias glacialis); conditions: 15 μM ATP; cell '− (x)' = no inhibitory activity detected, x = highest concentration tested
# Method: ATP (3,000 Ci/mmol; 1 mCi/ml) in a final volume of 30 μl. […] The wet filters were counted in the presence of 1 ml ACS (Amersham) scintillation fluid.
# GSK-3α/ß = assay: GSK-3α/β kinase assay (GS-1 substrate); format: biochemical, porcine; conditions: 15 μM ATP; cell '− (x)' = no inhibitory activity detected, x = highest concentration tested
# From the text: GSK-3 α/β was purified from porcine brain by affinity chromatography on immobilized axin [39].
# CK1 = CK1 kinase assay (CKS peptide); format: biochemical, porcine; conditions: 15 μM ATP; cell '− (x)' = no inhibitory activity detected, x = highest concentration tested
# Method: CK1 was purified from porcine brain by affinity chromatography on immobilized axin fragment. The mixture of native CK1 isoforms (essentially CK1δ and CK1ɛ) was assayed in three-fold diluted buffer C, using 25 μM CKS peptide, a CK1 selective substrate (RRKHAAIGpSAYSITA, synthesized by Millegen (Labège, France). Assays were performed for 30 min. at 30°C, as described for GSK-3.
# AMPKα = assay: CEREP Kinase Selectivity Panel; format: biochemical; conditions: 10 μM lamellarin N
# BMX kinase (h) (Etk) = BMX kinase (h) (Etk) (Homo sapiens, UniProt P51813); assay: CEREP Kinase Selectivity Panel; format: biochemical; conditions: 10 μM lamellarin N
# Brk (h) = Brk (h) (Homo sapiens, UniProt Q13882); assay: CEREP Kinase Selectivity Panel; format: biochemical; conditions: 10 μM lamellarin N
# CaMK4 (h) = CaMK4 (h) (Homo sapiens, UniProt Q16566); assay: CEREP Kinase Selectivity Panel; format: biochemical; conditions: 10 μM lamellarin N
# CDC2/CDK1 (h) (cycB) = CDC2/CDK1 (h) (cycB) (Homo sapiens, UniProt P06493); assay: CEREP Kinase Selectivity Panel; format: biochemical; conditions: 10 μM lamellarin N
# CDK2 (h) (cycE) = CDK2 (h) (cycE) (Homo sapiens, UniProt P24941); assay: CEREP Kinase Selectivity Panel; format: biochemical; conditions: 10 μM lamellarin N
# CHK1 (h) = CHK1 (h) (Homo sapiens, UniProt O14757); assay: CEREP Kinase Selectivity Panel; format: biochemical; conditions: 10 μM lamellarin N
# CHK1 (h), sequence (O14757 whole entry): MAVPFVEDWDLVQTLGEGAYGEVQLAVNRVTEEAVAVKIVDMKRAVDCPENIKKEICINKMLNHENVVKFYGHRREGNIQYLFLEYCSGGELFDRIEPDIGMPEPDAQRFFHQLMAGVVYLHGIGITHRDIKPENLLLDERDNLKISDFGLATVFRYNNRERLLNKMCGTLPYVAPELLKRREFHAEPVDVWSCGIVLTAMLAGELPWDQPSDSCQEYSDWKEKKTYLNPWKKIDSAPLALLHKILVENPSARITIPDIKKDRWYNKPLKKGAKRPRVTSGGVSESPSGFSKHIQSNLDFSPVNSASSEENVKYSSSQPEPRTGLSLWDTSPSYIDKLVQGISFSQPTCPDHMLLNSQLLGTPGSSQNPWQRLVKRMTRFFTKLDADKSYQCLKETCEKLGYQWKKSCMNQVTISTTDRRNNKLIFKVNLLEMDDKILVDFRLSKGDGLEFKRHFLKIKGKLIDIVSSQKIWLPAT
# CHK2 (h) = CHK2 (h) (Homo sapiens, UniProt O96017); assay: CEREP Kinase Selectivity Panel; format: biochemical; conditions: 10 μM lamellarin N
# c-Met kinase (h) = c-Met kinase (h) (Homo sapiens, UniProt P08581); assay: CEREP Kinase Selectivity Panel; format: biochemical; conditions: 10 μM lamellarin N
# EphB4 kinase (h) = EphB4 kinase (h) (Homo sapiens, UniProt P54760); assay: CEREP Kinase Selectivity Panel; format: biochemical; conditions: 10 μM lamellarin N
# ERK1 (h) = ERK1 (h) (Homo sapiens, UniProt P27361); assay: CEREP Kinase Selectivity Panel; format: biochemical; conditions: 10 μM lamellarin N
# ERK1 (h), sequence (P27361 whole entry): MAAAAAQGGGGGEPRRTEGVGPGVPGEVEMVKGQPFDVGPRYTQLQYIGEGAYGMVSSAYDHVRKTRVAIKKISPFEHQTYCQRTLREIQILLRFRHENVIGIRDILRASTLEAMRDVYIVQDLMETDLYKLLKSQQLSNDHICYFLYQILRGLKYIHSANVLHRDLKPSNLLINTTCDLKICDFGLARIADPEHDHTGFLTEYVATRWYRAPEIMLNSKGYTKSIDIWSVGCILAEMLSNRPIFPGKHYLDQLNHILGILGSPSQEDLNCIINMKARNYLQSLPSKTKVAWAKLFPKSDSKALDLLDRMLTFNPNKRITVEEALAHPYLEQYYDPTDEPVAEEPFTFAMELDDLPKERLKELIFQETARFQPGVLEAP
# ERK2 (h) (P42mapk) = ERK2 (h) (P42mapk) (Homo sapiens, UniProt P28482); assay: CEREP Kinase Selectivity Panel; format: biochemical; conditions: 10 μM lamellarin N
# FGFR2 kinase (h) = FGFR2 kinase (h) (Homo sapiens, UniProt P21802); assay: CEREP Kinase Selectivity Panel; format: biochemical; conditions: 10 μM lamellarin N
# FGFR2 kinase (h), sequence (P21802 22-821): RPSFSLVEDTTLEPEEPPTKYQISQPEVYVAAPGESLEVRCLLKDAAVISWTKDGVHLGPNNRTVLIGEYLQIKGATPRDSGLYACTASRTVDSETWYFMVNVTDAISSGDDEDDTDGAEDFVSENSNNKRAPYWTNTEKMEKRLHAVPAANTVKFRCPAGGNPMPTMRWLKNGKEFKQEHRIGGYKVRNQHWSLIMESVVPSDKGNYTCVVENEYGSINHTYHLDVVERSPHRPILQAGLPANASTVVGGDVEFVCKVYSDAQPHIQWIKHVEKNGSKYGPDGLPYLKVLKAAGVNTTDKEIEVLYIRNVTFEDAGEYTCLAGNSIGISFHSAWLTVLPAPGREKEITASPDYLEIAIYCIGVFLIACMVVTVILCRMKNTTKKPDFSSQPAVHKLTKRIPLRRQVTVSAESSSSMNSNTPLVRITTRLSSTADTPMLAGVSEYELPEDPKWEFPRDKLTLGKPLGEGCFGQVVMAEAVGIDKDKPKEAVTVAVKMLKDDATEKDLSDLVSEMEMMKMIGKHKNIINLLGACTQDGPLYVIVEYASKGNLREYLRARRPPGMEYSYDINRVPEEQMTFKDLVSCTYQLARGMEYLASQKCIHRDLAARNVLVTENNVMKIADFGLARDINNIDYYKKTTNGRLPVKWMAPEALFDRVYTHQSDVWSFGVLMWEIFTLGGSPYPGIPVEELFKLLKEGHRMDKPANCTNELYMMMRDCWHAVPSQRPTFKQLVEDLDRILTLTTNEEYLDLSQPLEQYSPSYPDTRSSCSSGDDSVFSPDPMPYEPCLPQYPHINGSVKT
# Fyn kinase (h) = Fyn kinase (h) (Homo sapiens, UniProt P06241); assay: CEREP Kinase Selectivity Panel; format: biochemical; conditions: 10 μM lamellarin N
# Fyn kinase (h), sequence (P06241 whole entry): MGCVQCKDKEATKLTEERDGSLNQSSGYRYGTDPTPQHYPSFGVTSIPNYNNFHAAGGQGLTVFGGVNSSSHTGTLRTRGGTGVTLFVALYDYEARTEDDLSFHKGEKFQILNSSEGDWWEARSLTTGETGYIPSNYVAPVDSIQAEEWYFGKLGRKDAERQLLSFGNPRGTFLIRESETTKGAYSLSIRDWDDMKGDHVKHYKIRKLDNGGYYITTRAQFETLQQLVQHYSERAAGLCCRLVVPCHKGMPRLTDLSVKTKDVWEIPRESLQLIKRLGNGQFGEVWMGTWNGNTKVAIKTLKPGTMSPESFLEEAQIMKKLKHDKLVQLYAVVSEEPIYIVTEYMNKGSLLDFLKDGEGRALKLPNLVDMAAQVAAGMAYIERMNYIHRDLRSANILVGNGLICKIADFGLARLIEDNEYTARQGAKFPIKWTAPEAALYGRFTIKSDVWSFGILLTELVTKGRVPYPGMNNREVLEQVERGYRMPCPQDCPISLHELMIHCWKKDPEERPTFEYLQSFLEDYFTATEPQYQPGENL
# IRK (h) (InsR) = IRK (h) (InsR) (Homo sapiens, UniProt P06213); assay: CEREP Kinase Selectivity Panel; format: biochemical; conditions: 10 μM lamellarin N
# JNK 2 (h) = JNK 2 (h) (Homo sapiens, UniProt P45984); assay: CEREP Kinase Selectivity Panel; format: biochemical; conditions: 10 μM lamellarin N
# KDR kinase (h) (VEGFR2) = KDR kinase (h) (VEGFR2) (Homo sapiens, UniProt P35968); assay: CEREP Kinase Selectivity Panel; format: biochemical; conditions: 10 μM lamellarin N
# Lck kinase (h) = Lck kinase (h) (Homo sapiens, UniProt P06239); assay: CEREP Kinase Selectivity Panel; format: biochemical; conditions: 10 μM lamellarin N
# Lyn kinase (h) = Lyn kinase (h) (Homo sapiens, UniProt P07948); assay: CEREP Kinase Selectivity Panel; format: biochemical; conditions: 10 μM lamellarin N
# MAPKAPK2 (h) = MAPKAPK2 (h) (Homo sapiens, UniProt P49137); assay: CEREP Kinase Selectivity Panel; format: biochemical; conditions: 10 μM lamellarin N
# p38α kinase (h) = p38α kinase (h) (Homo sapiens, UniProt Q16539); assay: CEREP Kinase Selectivity Panel; format: biochemical; conditions: 10 μM lamellarin N
# p38α kinase (h), sequence (Q16539 whole entry): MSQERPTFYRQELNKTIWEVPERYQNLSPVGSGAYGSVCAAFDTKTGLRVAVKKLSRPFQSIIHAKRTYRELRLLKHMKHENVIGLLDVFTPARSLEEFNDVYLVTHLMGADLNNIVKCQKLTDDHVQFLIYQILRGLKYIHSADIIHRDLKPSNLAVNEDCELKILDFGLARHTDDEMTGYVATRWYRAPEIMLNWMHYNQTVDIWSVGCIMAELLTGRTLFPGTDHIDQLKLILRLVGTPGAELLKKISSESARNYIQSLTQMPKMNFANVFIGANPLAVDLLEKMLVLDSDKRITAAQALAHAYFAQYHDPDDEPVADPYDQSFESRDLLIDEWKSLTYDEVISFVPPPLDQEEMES
# p38δ kinase (h) = p38δ kinase (h) (Homo sapiens, UniProt O15264); assay: CEREP Kinase Selectivity Panel; format: biochemical; conditions: 10 μM lamellarin N
# p38δ kinase (h), sequence (O15264 whole entry): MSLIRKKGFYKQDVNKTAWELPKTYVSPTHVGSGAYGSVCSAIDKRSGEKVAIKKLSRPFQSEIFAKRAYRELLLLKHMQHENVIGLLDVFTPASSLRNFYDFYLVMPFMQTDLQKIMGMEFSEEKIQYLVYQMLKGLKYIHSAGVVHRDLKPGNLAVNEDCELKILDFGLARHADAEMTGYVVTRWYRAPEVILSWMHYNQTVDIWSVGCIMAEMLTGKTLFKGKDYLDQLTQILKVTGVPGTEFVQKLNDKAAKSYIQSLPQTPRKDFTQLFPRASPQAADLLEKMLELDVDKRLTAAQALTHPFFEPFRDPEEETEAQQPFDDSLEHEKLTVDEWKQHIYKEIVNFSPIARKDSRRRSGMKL
# PDGFRβ kinase (h) = PDGFRβ kinase (h) (Homo sapiens, UniProt P09619); assay: CEREP Kinase Selectivity Panel; format: biochemical; conditions: 10 μM lamellarin N
# PDK1 (h) = PDK1 (h) (Homo sapiens, UniProt O15530); assay: CEREP Kinase Selectivity Panel; format: biochemical; conditions: 10 μM lamellarin N
# PDK1 (h), sequence (O15530 whole entry): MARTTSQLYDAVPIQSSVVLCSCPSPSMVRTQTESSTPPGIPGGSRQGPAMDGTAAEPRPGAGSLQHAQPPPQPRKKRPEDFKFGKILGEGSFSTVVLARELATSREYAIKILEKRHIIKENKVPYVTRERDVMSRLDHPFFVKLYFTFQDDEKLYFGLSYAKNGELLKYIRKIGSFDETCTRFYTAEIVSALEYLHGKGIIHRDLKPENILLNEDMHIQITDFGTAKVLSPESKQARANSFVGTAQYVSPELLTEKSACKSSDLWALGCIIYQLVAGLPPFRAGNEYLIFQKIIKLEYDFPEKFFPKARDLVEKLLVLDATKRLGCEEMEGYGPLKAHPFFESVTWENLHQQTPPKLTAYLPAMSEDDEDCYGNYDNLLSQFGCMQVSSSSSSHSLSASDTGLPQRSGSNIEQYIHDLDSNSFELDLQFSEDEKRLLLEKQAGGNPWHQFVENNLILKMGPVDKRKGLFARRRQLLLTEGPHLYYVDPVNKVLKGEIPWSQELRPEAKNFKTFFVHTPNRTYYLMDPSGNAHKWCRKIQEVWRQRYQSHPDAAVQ
# PKCα (h) = PKCα (h) (Homo sapiens, UniProt P17252); assay: CEREP Kinase Selectivity Panel; format: biochemical; conditions: 10 μM lamellarin N
# PKCβ 1 (h) = PKCβ 1 (h) (Homo sapiens, UniProt P05771); assay: CEREP Kinase Selectivity Panel; format: biochemical; conditions: 10 μM lamellarin N
# PKCγ (h) = PKCγ (h) (Homo sapiens, UniProt P05129); assay: CEREP Kinase Selectivity Panel; format: biochemical; conditions: 10 μM lamellarin N
# Ret kinase (h) = Ret kinase (h) (Homo sapiens, UniProt P07949); assay: CEREP Kinase Selectivity Panel; format: biochemical; conditions: 10 μM lamellarin N
# RSK2 (h) = RSK2 (h) (Homo sapiens, UniProt P51812); assay: CEREP Kinase Selectivity Panel; format: biochemical; conditions: 10 μM lamellarin N
# RSK2 (h), sequence (P51812 whole entry): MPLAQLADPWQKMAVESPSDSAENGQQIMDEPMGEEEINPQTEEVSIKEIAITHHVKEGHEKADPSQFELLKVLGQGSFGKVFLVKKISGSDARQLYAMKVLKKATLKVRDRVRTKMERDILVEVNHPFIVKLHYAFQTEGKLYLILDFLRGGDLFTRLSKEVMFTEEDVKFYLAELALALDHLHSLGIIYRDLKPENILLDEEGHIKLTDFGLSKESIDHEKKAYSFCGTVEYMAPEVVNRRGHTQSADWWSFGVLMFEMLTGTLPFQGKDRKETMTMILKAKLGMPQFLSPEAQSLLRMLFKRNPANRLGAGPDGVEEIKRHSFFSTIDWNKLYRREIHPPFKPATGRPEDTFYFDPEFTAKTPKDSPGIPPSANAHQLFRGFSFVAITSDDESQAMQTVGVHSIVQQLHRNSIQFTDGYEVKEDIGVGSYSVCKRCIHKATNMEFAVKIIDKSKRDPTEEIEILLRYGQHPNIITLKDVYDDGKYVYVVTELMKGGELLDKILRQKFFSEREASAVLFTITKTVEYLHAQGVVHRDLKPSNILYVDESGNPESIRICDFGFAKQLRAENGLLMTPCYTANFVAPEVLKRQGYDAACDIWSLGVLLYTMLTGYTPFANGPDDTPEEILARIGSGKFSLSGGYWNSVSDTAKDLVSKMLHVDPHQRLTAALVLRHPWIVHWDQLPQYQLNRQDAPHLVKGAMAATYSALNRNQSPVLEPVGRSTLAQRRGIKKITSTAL
# Syk (h) = Syk (h) (Homo sapiens, UniProt P43405); assay: CEREP Kinase Selectivity Panel; format: biochemical; conditions: 10 μM lamellarin N
# TRKA (h) = TRKA (h) (Homo sapiens, UniProt P04629); assay: CEREP Kinase Selectivity Panel; format: biochemical; conditions: 10 μM lamellarin N
# TRKA (h), sequence (P04629 33-796): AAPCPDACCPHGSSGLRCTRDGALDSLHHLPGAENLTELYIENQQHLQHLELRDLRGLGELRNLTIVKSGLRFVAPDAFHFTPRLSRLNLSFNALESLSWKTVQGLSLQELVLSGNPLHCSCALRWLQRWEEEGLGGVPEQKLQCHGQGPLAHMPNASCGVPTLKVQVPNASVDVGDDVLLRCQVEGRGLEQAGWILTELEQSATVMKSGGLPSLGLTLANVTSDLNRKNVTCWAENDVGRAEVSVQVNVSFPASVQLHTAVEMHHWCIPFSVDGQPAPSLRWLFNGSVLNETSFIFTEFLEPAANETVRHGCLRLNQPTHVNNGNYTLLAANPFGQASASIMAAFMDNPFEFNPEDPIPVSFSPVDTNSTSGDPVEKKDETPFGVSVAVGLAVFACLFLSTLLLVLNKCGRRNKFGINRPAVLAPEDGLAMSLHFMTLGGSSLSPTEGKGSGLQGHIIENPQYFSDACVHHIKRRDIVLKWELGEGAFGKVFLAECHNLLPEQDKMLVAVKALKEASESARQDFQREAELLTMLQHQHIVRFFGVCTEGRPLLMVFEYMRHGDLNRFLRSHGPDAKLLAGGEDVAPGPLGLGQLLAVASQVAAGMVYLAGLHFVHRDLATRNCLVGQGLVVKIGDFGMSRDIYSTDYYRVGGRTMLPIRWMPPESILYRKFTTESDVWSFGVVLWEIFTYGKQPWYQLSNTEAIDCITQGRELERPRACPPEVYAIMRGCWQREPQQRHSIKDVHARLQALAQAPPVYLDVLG
# [1] = test system: PARP, p53, p21^CIP1, Mcl-1 in SH-SY5Y cells; format: cell-based, human
# Method: SH-SY5Y cells treated at time 0 with 1 μM lamellarin N. Cells were harvested at different time-points and protein extracted for SDS-PAGE followed by Western blot analysis using antibodies directed against PARP, p53, p21^CIP1, or Mcl-1, as described in the materials and methods section. β-actin was used as loading control. “Ctrl” denoted untreated sample after 10 hours.
# At given time points and lamellarin doses, SH-SY5Y cells were harvested in phosphate buffered saline (PBS) with commercially available protease inhibitors (Roche, 11836145001). Cells were homogenized by sonication in homogenization buffer supplemented with 0.1% NP-40 and protease inhibitors. The homogenization buffer consist of: 25mM MOPS, 15mM EGTA, 15mM MgCl2, 1mM sodium orthovanadate, 1mM sodium fluoride, 60mM β-glycerophosphate, 2mM DTT, 15mM p-nitrophenylphosphate, and 1mM phenyl phosphate-di-sodium salt (all reagents supplied by Sigma). Sonication retrieved proteins. Cellular proteins were subjected to electrophoresis in SDS 10% polyacrylamide gels and transferred to a PVDF membrane (Invitrogen). Membranes were incubated with primary antibodies directed against p53 (Santa Cruz Biotech, sc-263) (1:1000), p21^CIP1 (Calbiochem, OP64) (1:1000) or poly (ADP-ribose) polymerase (PARP) (Santa Cruz Biotech, sc-7150) (1:500). Appropriate secondary antibodies conjugated to horseradish peroxidase (Biorad) were added to visualize the proteins using the ECL detection system.
# [2] = test system: CDK1/cyclin B, CDK5/p25, GSK-3α/ß, PIM-1, DYRK1A, CK1; assay: Kinase assay panel, structure/activity comparison; format: biochemical; conditions: transposition of substitutions at R3 and R4 of lamellarin D
# Method: All compounds were run on our kinase assay panel comprising CDK1/cyclin B, CDK5/p25, GSK-3α/ß, PIM-1, DYRK1A, CK1.
# Kinase activities were assayed in buffer A (10 mM MgCl2, 1 mM EGTA, 1 mM DTT, 25 mM Tris-HCl pH 7.5, 50 μg heparin/ml) or C (60 mM β-glycerophosphate, 15 mM p-nitrophenyl phosphate, 25 mM MOPS (pH 7.2), 5 mM EGTA, 15 mM MgCl2, 1 mM dithiothreitol, 1 mM sodium vanadate, 1 mM phenylphosphate, 0.1 % Nonidet P-40), at 30°C, at a final ATP concentration of 15 μM. Blank values were subtracted and activities calculated as pmoles of phosphate incorporated during a 30 min. incubation. The activities were expressed in % of the maximal activity, i.e. in the absence of inhibitors. Controls were performed with appropriate dilutions of dimethylsulfoxide. Unless otherwise stated, the P81 phosphocellulose assay was used.
# DYRK1A = DYRK1A (Rattus norvegicus, UniProt Q63470); assay: DYRK1A kinase assay (myelin basic protein)
# Method: Blank values were subtracted and activities calculated as pmoles of phosphate incorporated during a 30 min. incubation. The activities were expressed in % of the maximal activity, i.e. in the absence of inhibitors. Controls were performed with appropriate dilutions of dimethylsulfoxide. Unless otherwise stated, the P81 phosphocellulose assay was used.
# DYRK1A was expressed as a GST fusion protein in E. coli (vector kindly provided by Dr. W. Becker, Institute for Pharmacology and Toxicology, Aachen, Germany) and affinity purified on glutathione-agarose. […] ATP in a final volume of 30 μl. After 30 min incubation at 30°C, 25 μl aliquots of supernatant were treated as described above.
structure (smiles),measurement,setting,value
"COc1ccc(-c2c3c4cc(OC)c(O)cc4oc(=O)c3n3ccc4cc(O)c(OC)cc4c23)cc1O [Compound 6, lamellarin N]",IC50,CDK1/cyclin B,0.07 µM
same,IC50,GSK-3α/ß,0.005 µM
same,IC50,CK1,> 10 µM
same,Activity (% of control),AMPKα,42.4 % of control
same,Activity (% of control),BMX kinase (h) (Etk),60.8 % of control
same,Activity (% of control),Brk (h),72.8 % of control
same,Activity (% of control),CaMK4 (h),89.9 % of control
same,Activity (% of control),CDC2/CDK1 (h) (cycB),20.4 % of control
same,Activity (% of control),CDK2 (h) (cycE),57.1 % of control
same,Activity (% of control),CHK1 (h),93.3 % of control
same,Activity (% of control),CHK2 (h),47.6 % of control
same,Activity (% of control),c-Met kinase (h),92.1 % of control
same,Activity (% of control),EphB4 kinase (h),89.7 % of control
same,Activity (% of control),ERK1 (h),94.1 % of control
same,Activity (% of control),ERK2 (h) (P42mapk),79.9 % of control
same,Activity (% of control),FGFR2 kinase (h),19.8 % of control
same,Activity (% of control),Fyn kinase (h),20.1 % of control
same,Activity (% of control),IRK (h) (InsR),46.7 % of control
same,Activity (% of control),JNK 2 (h),15.7 % of control
same,Activity (% of control),KDR kinase (h) (VEGFR2),7.4 % of control
same,Activity (% of control),Lck kinase (h),7.1 % of control
same,Activity (% of control),Lyn kinase (h),7.2 % of control
same,Activity (% of control),MAPKAPK2 (h),96.6 % of control
same,Activity (% of control),p38α kinase (h),97.4 % of control
same,Activity (% of control),p38δ kinase (h),96.0 % of control
same,Activity (% of control),PDGFRβ kinase (h),1.8 % of control
same,Activity (% of control),PDK1 (h),89.8 % of control
same,Activity (% of control),PKCα (h),91.7 % of control
same,Activity (% of control),PKCβ 1 (h),102.0 % of control
same,Activity (% of control),PKCγ (h),94.1 % of control
same,Activity (% of control),Ret kinase (h),1.8 % of control
same,Activity (% of control),RSK2 (h),44.5 % of control
same,Activity (% of control),Syk (h),97.1 % of control
same,Activity (% of control),TRKA (h),0.8 % of control
same,effect on survival factor Mcl-1 expression,[1],not down-regulated
same,lowest concentration inducing PARP cleavage and p53 and p21 expression,[1],0.1 µM
same,time at which induction of PARP cleavage and p53 and p21 expression already takes place,[1],≤ 6 h
same,enhancement of kinase inhibitory activity relative to lamellarin D,[2],10 fold
same,IC50,DYRK1A,0.035 µM
